Measurements reported in patent US20130158024A1, “TRICYCLIC NECROSTATIN COMPOUNDS” (priority 2005, published 2013).

Legend:
[1] = tested on: Jurkat cells expressing dimerizable FADD; details: Homo sapiens, Jurkat, 36 h
[2] = tested on: Jurkat cells expressing dimerizable FADD; assay: Toxicity of compound alone in Jurkat cells expressing dimerizable FADD (no dimerizer); details: compound in the absence of dimerizer
SH-SY5Y cells [3] = assay: MPP+ cytotoxicity in SH-SY5Y neuroblastoma cells in the presence of zVAD, ATP assay; format: cell-based, human; details: zVAD 100 μM, compound 30 μM, 72 hours
Procedure: FIG. 15 is a chart showing that necrostatins attenuate MPP^+ cytotoxicity in human SH-SY5Y neuroblastoma cells. Cells were treated with 5 mM MPP^+ in the presence or absence of 100 μM zVAD.fmk and 30 μM necrostatins for 72 hours, followed by an ATP assay. Values represent cell viability normalized to the corresponding compound treated controls not treated with MPP^+.
(§1) FIG. 35A is a graph showing the results of treating SH-SY5Y cells with 1 mM MPP+ in the presence of zVAD (100 μM) and compound (19) (30 μM) for 72 hours. Cell viability was determined using an ATP assay. FIG. 35B is a graph as in FIG. 35A, in which cells were treated in the presence of 100 μM amyloid-beta 25-35 protein rather than MPP+.

Jurkat T cells = assay: Necrosis (CICD) of Jurkat T cells induced by Fas ligand, cycloheximide and zVAD, ATP assay; format: cell-based, human; details: FasL/CHX/zVAD
Procedure: Jurkat cells were treated with 5 ng/ml of FasL without (A) or with cyclohexamide (CHX) (B) to induce apoptosis, or 5 ng/ml FasL, 1 μg/ml of CHX and 100 μM of zVAD.fmk to induce CICD (B). […] Cell viability was determined after 24 hours of incubation with indicated reagents using CellTiter-Glo ATP assay. The values represent viability relative to the control Jurkat cells without the treatment of FasL, which was set as 100% viability.
FIG. 34A is a graph showing the results of treating Jurkat T cells with Fas ligand (5 ng/ml), cyclohexamide (1 μg/ml) and zVAD (100 μM) in the presence of the indicated amounts of anti-necrotic compounds (4) and (5). Viability was determined 36 hours later using an ATP assay. The viability values are relative to the samples lacking Fas ligand, which were used as 100% viability controls. FIG. 34B is a graph as in FIG. 34A, in which the anti-necrotic compounds are (19) and (20).
Compounds were also tested in another necrosis assay utilizing human Jurkat T cells, Fas ligand to induce cell death, and zVAD to inhibit the apoptosis pathway. After 36 hours, cell viability was measure by the commercial CellTiter ATP cell viability assay (Promega).

SH-SY5Y cells [4] = assay: Amyloid-beta 25-35 toxicity in SH-SY5Y cells in the presence of zVAD, ATP assay; format: cell-based, human; details: 100 μM amyloid-beta 25-35, zVAD 100 μM, compound 30 μM, 72 hours
Procedure: as §1
To further verify that (19) can protect neuronal cells from necrosis, it was tested using two different neurotoxins in the human neuroblastoma cell line SH-SY5Y in the presence of zVAD. Cell death was induced by β-amyloid, a cellular model of Alzheimer's disease, and […] (MPP+), a cellular model of Parkinson's disease.

Cc1cc(O)c(C(=O)/C=C/c2ccc(O)c([N+](=O)[O-])c2)c(=O)o1 [Nec-2]
EC50 [1]: 27.3 µM
LD50 [2]: 134 µM
attenuation of MPP+ cytotoxicity, in words (SH-SY5Y cells [3]): especially pronounced in case of Nec-2

COc1ccc([C@H]2[C@H]3CCc4ccc(OC)cc4C3=NN2C(C)=O)cc1 (relative stereo) [Compound 141, (3R,3aR)-rel-2-acetyl-3,3a,4,5-tetrahydro-3-(4-methoxyphenyl)-8-methoxy-2H-benz[g]indazole]
inhibition of CICD/necrosis of Jurkat cells, in words (Jurkat T cells): efficiently inhibit necrosis and result in high cell viability
attenuation of MPP+ cytotoxicity, in words (SH-SY5Y cells [3]): effective in reducing toxicity as measured by cellular ATP levels
reduction of β-amyloid toxicity in SH-SY5Y, in words (SH-SY5Y cells [4]): effective in reducing toxicity as measured by cellular ATP levels
